According to patent US11369583B2, “Long-acting prodrugs of rasagiline, preparing methods and uses thereof” (GUANGZHOU HENOVCOM BIOSCIENCE CO. LTD, priority 2017, dated 2022):
In brackets after ≈: the same amount, converted by molar mass. Like-named read-outs stand apart in the source and are kept apart here.

What was measured:
[1] = Solubility of prodrug compounds of Rasagiline in phosphate buffer pH 7.4; type: physicochemical
From the text: A melting point and solubility (phosphate buffer with pH of 7.4) of synthesized prodrug compounds of Rasagiline were detected, and the results are shown in table 1: […]

[2] = Pharmacokinetics experiment: Rasagiline in blood plasma after intramuscular injection of prodrug suspensions into beagles; type: in vivo; conditions: beagle, intramuscular injectable suspension
Description: One common male beagle was used for each group, and they were forbidden to eat for 12 hours before administering drugs, and drank water freely meanwhile. Injectable suspensions of Example 13, Example 15, Example 14, Example 20, Example 8 were intramuscularly injected in a dosage of 0.47 mg/kg Rasagiline (1.72 mg/kg, 1.56 mg/kg, 1.64 mg/kg, 1.80 mg/kg, 1.16 mg/kg of prodrug respectively after conversion).
Treatment of blood plasma sample: The blood plasma sample was placed in an ice bath; 30 μL of methanol and 20 μL of interior label (2 μg/mL apigenin dissolved in 50% methanol) were added into 200 μL of the blood plasma sample and mixed through vortex, and then 4 mL of ethyl acetate was added and mixed through vortex. After being centrifuged at 9000 g for 2 minutes, an organic phase was separated and dried in vacuum, and then 150 μL of methanol was added for re-dissolution. 30 μL of a prepared sample was taken for analyzing.
Data analysis: The sample was detected by LC-MS/MS, and analyzed by a DAS 2.0 software to calculate pharmacokinetic parameters according to blood drug concentration, providing parameters such as AUC (0-t), AUC(0-∞), MRT(0-t), MRT(0-∞), Cmax, Tmax, and t1/2, etc.

[3] = biological target: Monoamine oxidase (MAO-B) (Homo sapiens, UniProt P27338); conditions: monoamine oxidase inhibitor; stronger than Selegiline; cited from earlier work
[4] = pH 7.4, aqueous buffer, phosphate buffer with pH of 7.4, read-out: SOLUBILITY

Chain of Monoamine oxidase (MAO-B) (P27338 whole entry, species assumed): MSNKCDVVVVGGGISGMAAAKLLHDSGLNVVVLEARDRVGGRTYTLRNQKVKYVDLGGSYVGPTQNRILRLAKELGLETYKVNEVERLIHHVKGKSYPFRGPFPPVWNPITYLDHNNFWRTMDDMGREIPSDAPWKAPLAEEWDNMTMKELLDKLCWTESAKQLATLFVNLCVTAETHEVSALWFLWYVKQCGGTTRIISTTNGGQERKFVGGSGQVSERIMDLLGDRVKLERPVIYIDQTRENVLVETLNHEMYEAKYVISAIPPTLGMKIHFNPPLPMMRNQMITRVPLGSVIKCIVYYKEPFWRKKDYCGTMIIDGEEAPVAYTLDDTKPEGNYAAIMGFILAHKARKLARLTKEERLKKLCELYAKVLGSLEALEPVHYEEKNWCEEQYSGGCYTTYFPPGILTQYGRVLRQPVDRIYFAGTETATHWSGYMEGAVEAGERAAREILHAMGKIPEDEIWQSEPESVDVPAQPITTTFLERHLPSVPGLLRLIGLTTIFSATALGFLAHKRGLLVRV

For `C#CCN(C(=O)OCOC(=O)CC[C@@H](C)C1CCC2C3CC[C@@H]4C[C@H](O)CC[C@]4(C)C3C[C@H](O)[C@@]21C)[C@@H]1CCc2ccccc21` (some centres unmarked) [Example 11, methyl ((Rasagiline-N-formyl)oxy)-deoxycholate], the solubility ([1]; pH 7.4, aqueous buffer) was under 5 µg/mL and the melting point was under 50 °C.

Work on `C#CCN(C(=O)OCOC(=O)CC[C@@H](C)C1CCC2C3C(CC[C@@]21C)[C@@]1(C)CC[C@@H](O)C[C@H]1C[C@@H]3O)[C@@H]1CCc2ccccc21` (some centres unmarked) [Example 10, methyl ((Rasagiline-N-formyl)oxy)-ursodesoxycholate] yielded a solubility ([1]; pH 7.4, aqueous buffer) of under 5 µg/mL and a melting point of under 50 °C.

In the case of `C#CCN(C(=O)OCOC(=O)CCCCCNC(=O)CCCCCCCCCCCCCCCCCCC)[C@@H]1CCc2ccccc21` [Example 12, methyl ((Rasagiline-N-formyl)oxy)-icosanamidohexanoate], the solubility [1, 4] is reported as under 5 µg/mL and the melting point is reported as 77.2 to 80.8 °C.

In the case of `C#CCN(C(=O)OCOC(=O)CC[C@@H](C)C1CCC2C3C[C@H](O)[C@@H]4C[C@H](O)CC[C@]4(C)C3CC[C@@]21C)[C@@H]1CCc2ccccc21` (some centres unmarked) [Example 6, methyl ((Rasagiline-N-formyl)oxy)-hyodeoxycholate], the solubility ([1]; pH 7.4, aqueous buffer) is reported as under 5 µg/mL and the melting point is reported as under 50 °C.

Work on `C#CCN(C(=O)OCOC(=O)CCCCCCCCCCCCCCCCCCC)[C@@H]1CCc2ccccc21` [Example 5, methyl ((Rasagiline-N-formyl)oxy)-icosanoate] yielded a solubility [1, 4] of under 5 µg/mL and a melting point of under 25 °C.

Work on `C#CCN(C(=O)OCOC(=O)CCCCNC(=O)CCCCCCCCCCCCCCCCC)[C@@H]1CCc2ccccc21` [Example 22, methyl ((Rasagiline-N-formyl)oxy)5-stearamidopentanoate] yielded a solubility [1, 4] of under 5 µg/mL and a melting point of 75.3 to 77.1 °C.

With `C#CCN(C(=O)OCOC(=O)CCCNC(=O)CCCCCCCCCCC)[C@@H]1CCc2ccccc21` [Example 16, methyl ((Rasagiline-N-formyl)oxy)4-dodecanamidobutanoate] the solubility [1, 4] was under 5 µg/mL and the melting point was 56.1 to 59.4 °C.

`C#CCN(C(=O)OCOC(=O)C(C)(C)C)[C@@H]1CCc2ccccc21` [Example 4, methyl ((Rasagiline-N-formyl)oxy)-pivalate] gave a solubility [1, 4] of under 5 µg/mL and a melting point of under 25 °C.

Compound `C#CCN(C(=O)OCOC(=O)/C=C/c1ccc(O)c(OC)c1)[C@@H]1CCc2ccccc21` [Example 8, methyl ((Rasagiline-N-formyl)oxy)-ferulate] has a solubility [1, 4] of under 5 µg/mL and a melting point of 130.4 to 133.8 °C.

Compound `C#CCN(C(=O)OCOC(=O)CCCCCCCCCCCCCCC)[C@@H]1CCc2ccccc21` [Example 1, methyl ((Rasagiline-N-formyl)oxy)-palmitate] has a solubility [1, 4] of under 5 µg/mL and a melting point of under 25 °C.

For `C#CCN(C(=O)OCOC(=O)CCCNC(=O)CCCCCCCCCCCCCCCCCCC)[C@@H]1CCc2ccccc21` [Example 13, methyl ((Rasagiline-N-formyl)oxy)-icosanamidobutanoate], the “release of the prodrug and conversion into Rasagiline (in words)” value [2] was “steadier”, the solubility [1, 4] was under 5 µg/mL and the melting point was 80 to 82 °C.

Compound `C#CCN(C(=O)OCOC(=O)CCCNC(=O)CCCCCCCCCCCCCCC)[C@@H]1CCc2ccccc21` [Example 15, methyl ((Rasagiline-N-formyl)oxy)-palmitamidobutanoate] has a solubility [1, 4] of under 5 µg/mL and a melting point of 73 to 75 °C.

`C#CCN(C(=O)OCOC(=O)CC[C@@H](C)C1CCC2C3C(CC[C@@]21C)[C@@]1(C)CC[C@@H](O)C[C@H]1C[C@H]3O)[C@@H]1CCc2ccccc21` (some centres unmarked) [Example 9, methyl ((Rasagiline-N-formyl)oxy)-chenodeoxycholate] gave a solubility ([1]; pH 7.4, aqueous buffer) of under 5 µg/mL and a melting point of under 50 °C.

Compound `C#CCN(C(=O)OCOC(=O)Cc1cccc2ccccc12)[C@@H]1CCc2ccccc21` [Example 2, methyl ((Rasagiline-N-formyl)oxy)-naphthalene acetate] has a solubility [1, 4] of under 5 µg/mL and a melting point of 66 to 70 °C.

In the case of `C#CCN[C@@H]1CCc2ccccc21` [Rasagiline], the “inhibiting effect compared to Selegiline” value [3] is listed as 5-10 times.

`C#CCN(C(=O)OCOC(=O)CCCCCCCCCCCCCCCCC)[C@@H]1CCc2ccccc21` [Example 3, methyl ((Rasagiline-N-formyl)oxy)-stearate] gave a solubility [1, 4] of under 5 µg/mL and a melting point of under 25 °C.

`C#CCN(C(=O)OCOC(=O)CCCCNC(=O)CCCCCCCCCCCCCCC)[C@@H]1CCc2ccccc21` [Example 21, methyl ((Rasagiline-N-formyl)oxy)5-palmitamidopentanoate] gave a solubility [1, 4] of under 5 µg/mL and a melting point of 58.3 to 58.9 °C.

For `C#CCN(C(=O)OCOC(=O)CCCNC(=O)CCCCCCCCCCCCCCCCCCCCC)[C@@H]1CCc2ccccc21` [Example 20, methyl ((Rasagiline-N-formyl)oxy)4-docosanamidobutanoate], the “release of the prodrug and conversion into Rasagiline (in words)” value [2] was “steadier”, the solubility [1, 4] was under 5 µg/mL and the melting point was 55.4 to 56.2 °C.

Compound “methyl ((Rasagiline-N-formyl)oxy)4-stearamidohexanoate [Example 18]” has a solubility ([1]; pH 7.4) of under 5 µg/mL.

With `C#CCN(C(=O)OCOC(=O)CCCC[C@@H]1SC[C@@H]2NC(=O)N[C@@H]21)[C@@H]1CCc2ccccc21` [Example 7, methyl ((Rasagiline-N-formyl)oxy)-biotin methyl ester] the solubility [1, 4] was 31.7 µg/mL (≈ 67.2 µM).

`C#CCN(C(=O)OCOC(=O)CCC(=O)NCCCCCCCCCCCCCCCCCC)[C@@H]1CCc2ccccc21` [Example 23, methyl ((Rasagiline-N-formyl)oxy)4-octadecylamidosuccinate] gave a solubility [1, 4] of under 5 µg/mL.

In the case of `C#CCN(C(=O)OCOC(=O)CCCNC(=O)CCCCCCCCCCCCCCCCC)[C@@H]1CCc2ccccc21` [Example 14, methyl ((Rasagiline-N-formyl)oxy)-stearamidobutanoate], the solubility [1, 4] is reported as under 5 µg/mL and the melting point is reported as 76 to 78 °C.

With `C#CCN(C(=O)OCOC(=O)CCCNC(=O)CCCCCCCCCCCCC)[C@@H]1CCc2ccccc21` [Example 17, methyl ((Rasagiline-N-formyl)oxy)4-tetradecanamidobutanorate] the solubility [1, 4] was under 5 µg/mL and the melting point was 66.3 to 71.8 °C.
